# Experimental data taken from PMC3170264 (Retrovirology, 2011).
# Experiments:
# [1] = biological target: HIV-2 IN Y143C (Human immunodeficiency virus type 2 subtype B, UniProt Q89928, I1218V/I1301V/I1372V/M1455R/N1185G/N1438H/R1202K/R1392Q/T1348V/T1383A/V1460M/Y1311C); conditions: Y143C in N1 background; 200 nM IN
# Method: (§1) Mutations were introduced in the HIV-2 N1 background by mutagenesis. […] Activity is expressed as a % of control without drug. Experiments were performed two times.
# (§2) The IN coding sequences from the viruses isolated from the plasma of HIV-2-infected patients N1 to N3 and T1 to T7 were amplified by PCR and sequenced according to a previously described procedure. PCR products corresponding to the entire IN sequence were amplified again with the following specific primers containing NdeI and BamH I restriction sites at their 5' ends. Primer 1: N1, N2, T1, T2, 5'-[…]-3'; N3, 5'-[…]-3'; T3-T7, 5'-[…]-3'. Primers 2: N1, 5'-[…]-3'; N2, 5'-[…]-3'; N3, 5'-[…] The amplicons were then ligated into the TA cloning plasmid pGEM-T easy (Promega, Madison, USA). Single (E92Q, T97A, G140S, Q148R, Y143C, N155H) and double (G140S/Q148R, Y143C/N155H, E92Q/Y143C and T97A/Y143C) mutations were introduced into the HIV-2 wild-type N1 sequence by mutagenesis using the QuickChange II site-directed mutagenesis kit (Agilent Technologies, Santa Clara, USA) according to the manufacturer instructions. NdeI - BamH fragments covering the IN coding sequence were then inserted into the expression vector pET-15b.
# (§3) The activity of wild-type and mutated INs was determined in vitro, as previously described. Briefly, oligonucleotides (ODN) mimicking the end of the U5 long terminal repeat of the viral genome were radiolabeled with T4 polynucleotide kinase (Biolabs, Ipswich, USA) and [γ-^32P] ATP (3,000 Ci/mmol) (Amersham, GE Healthcare, USA), then purified on a Sephadex G-10 column (GE Healthcare, USA). Double-stranded ODNs were obtained by mixing equimolar amounts of complementary strands in the presence of 100 mM NaCl.
# [2] = biological target: HIV-2 IN N155H (Human immunodeficiency virus type 2 subtype B, UniProt Q89928, I1218V/I1301V/I1372V/M1455R/N1185G/N1323H/N1438H/R1202K/R1392Q/T1348V/T1383A/V1460M); conditions: N155H in N1 background; 200 nM IN
# Method: as §1, §2, §3
# [3] = biological target: T1, HIV-2 IN Q148R (Human immunodeficiency virus type 2 subtype B, UniProt Q89928, I1218V/I1301V/I1372V/M1455R/N1185G/N1438H/Q1316R/R1202K/R1392Q/T1348V/T1383A/V1460M); assay: susceptibility to RAL, site-directed mutant in N1 background; type: biochemical; conditions: preliminary studies with high protein concentrations
# T1 construct: His-tag (pET-15b) (N); made in house; host or cells: Escherichia coli BL21-CodonPlus (DE3)-RIPL
# T1 sequence (Q89928 with tags, fused parts or gaps N1185G/R1202K/I1218V/I1301V/Q1316R/T1348V/I1372V/T1383A/R1392Q/N1438H/M1455R/V1460M): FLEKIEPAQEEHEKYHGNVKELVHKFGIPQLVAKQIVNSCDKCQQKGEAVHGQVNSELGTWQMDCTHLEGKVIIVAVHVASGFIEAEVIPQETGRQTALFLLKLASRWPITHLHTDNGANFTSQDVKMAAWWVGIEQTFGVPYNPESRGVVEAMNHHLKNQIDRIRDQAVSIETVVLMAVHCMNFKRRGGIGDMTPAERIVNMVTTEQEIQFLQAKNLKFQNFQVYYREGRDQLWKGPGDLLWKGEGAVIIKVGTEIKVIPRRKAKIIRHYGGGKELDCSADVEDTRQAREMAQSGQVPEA
# Description: Primer 1: N1, N2, T1, T2, 5'-[…]-3'; N3, 5'-[…] […]-3'; T3-T7, 5'-[…]-3'. Primers 2: N1, 5'-[…]-3'; N2, 5'-[…] […]-3'; N3, 5'-[…] C-3'; T1, T2, 5'-[…]-3'; T3-T7, 5'-GGATC […] -3'.
# (§4) The HIV-2 ODN substrate sequences were: UA: 5'-[…]-3'; U5B: 5'-[…]-3'; U5B-2: 5'-[…] […]-3'.
# [4] = biological target: T2, HIV-2 N2 IN (Human immunodeficiency virus type 2 subtype B, UniProt Q89928, I1301V/I1428V/M1455R/N1185G/N1438H/R1202K/R1392Q/T1348A/T1383N/V1343I/V1460M); assay: strand transfer inhibition, IN from clinical isolate N2; type: biochemical; conditions: IN from RAL-naive patient N2; 200 nM IN; 37°C; Mg2+
# T2 construct: His-tag (pET-15b) (N); made in house; host or cells: Escherichia coli BL21-CodonPlus (DE3)-RIPL
# T2 sequence (Q89928 1169-1464 N1185G/R1202K/I1301V/V1343I/T1348A/T1383N/R1392Q/I1428V/N1438H/M1455R/V1460M limits assumed): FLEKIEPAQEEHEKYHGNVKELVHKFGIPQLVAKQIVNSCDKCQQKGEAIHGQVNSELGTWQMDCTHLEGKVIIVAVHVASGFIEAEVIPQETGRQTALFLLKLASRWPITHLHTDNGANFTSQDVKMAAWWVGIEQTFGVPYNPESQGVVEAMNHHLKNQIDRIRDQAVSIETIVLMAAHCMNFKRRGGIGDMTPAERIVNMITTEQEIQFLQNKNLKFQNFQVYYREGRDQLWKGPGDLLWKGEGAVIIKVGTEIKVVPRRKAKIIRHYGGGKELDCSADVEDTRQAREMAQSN
# Method: (§5) The ST reaction was performed using a ^32P-labeled oligonucleotide mimicking the preprocessed substrate. Drug concentrations are indicated above each lane. […] Activity is expressed as a % of control without drug. Experiments were repeated two times.
# as §4
# [5] = biological target: T3, HIV-2 N3 IN (Human immunodeficiency virus type 2 subtype B, UniProt Q89928, A1457T/D1293E/D1331N/F1194Y/I1218V/I1301V/I1428V/K1172N/M1455R/N1185G/N1438H/Q1389K/R1202K/R1392Q/T1348A/T1383A); assay: strand transfer inhibition, IN from clinical isolate N3; type: biochemical; conditions: IN from RAL-naive patient N3; 200 nM IN; 37°C; Mg2+
# T3 construct: His-tag (pET-15b) (N); made in house; host or cells: Escherichia coli BL21-CodonPlus (DE3)-RIPL
# T3 sequence (Q89928 1169-1461 K1172N/N1185G/F1194Y/R1202K/I1218V/D1293E/I1301V/D1331N/T1348A/T1383A/Q1389K/R1392Q/I1428V/N1438H/M1455R/A1457T): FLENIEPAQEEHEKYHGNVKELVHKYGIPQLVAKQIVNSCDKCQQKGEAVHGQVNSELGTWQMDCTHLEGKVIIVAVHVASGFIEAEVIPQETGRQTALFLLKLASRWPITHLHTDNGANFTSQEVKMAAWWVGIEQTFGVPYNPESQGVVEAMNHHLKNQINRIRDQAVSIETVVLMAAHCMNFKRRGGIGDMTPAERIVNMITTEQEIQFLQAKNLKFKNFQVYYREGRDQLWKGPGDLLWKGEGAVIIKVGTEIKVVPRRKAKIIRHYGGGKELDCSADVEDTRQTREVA
# Method: as §5, §4
# [6] = test system: HIV-2 IN E92A/T97A/N155H (T1); assay: strand transfer inhibition, IN from clinical isolate T1; type: biochemical; conditions: clinical isolate T1, N155H with substitutions at positions 92 and 97, 200 nM IN
# Method: Activity is expressed as a % of control without drug. Experiments were performed two times.
# as §4
smiles,measurement,setting,value
"Cc1nnc(C(=O)NC(C)(C)c2nc(C(=O)NCc3ccc(F)cc3)c(O)c(=O)n2C)o1 [RAL, raltegravir]","resistance to RAL, strand transfer",[1],did not lead to significant resistance
same,"resistance to RAL, strand transfer",[2],high level of resistance
same,susceptibility to RAL,[3],not susceptible
same,IC50,[4],30 nM
same,IC50,[5],48 nM
same,factor of increase of IC50 versus wild-type N1 IN,[6],about 50
